Experimental data taken from PubChem BioAssay AID1845208 (Molecular Pharmacology Branch, DTP, NCI, 2023).

System: NCI-H196 SCLC complex tumor spheroid viability
Assay: Anticancer human tumor NCI-H196 cell line growth inhibition;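 note: spheroids exposed to compounds for 7 days before readout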;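 for viability, T/C: 100% = DMSO vehicle control wells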
Conditions: for viability, T/C: stronger effect = lower value
Outline: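 Single agents and combinations were tested on spheroids built from tumor cells plus HUVEC and hMSC, at half-log dilutions starting at or near clinical Cmax, else 10 microM; final DMSO 0.25% (v/v).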

[1] = curve of first compound, second compound 30 pM
[2] = curve of first compound, second compound 94.9 pM
[3] = curve of first compound, second compound 0.0003 µM
[4] = curve of first compound, second compound 0.000949 µM
[5] = curve of first compound, second compound 0.003 µM
[6] = second compound 0.003 µM, first compound 0.0316 µM
[7] = second compound 0.003 µM, first compound 0.1 µM
[8] = second compound 0.003 µM, first compound 0.316 µM
[9] = second compound 0.003 µM, first compound 1 µM
[10] = second compound 0.003 µM, first compound 3.16 µM
[11] = second compound 0.003 µM, first compound 10 µM
[12] = curve of first compound, second compound 0.00949 µM
[13] = curve of first compound, second compound 0.03 µM
[14] = curve of first compound, second compound 0.0949 µM
[15] = curve of first compound, second compound 0.3 µM
[16] = second compound 0.00949 µM, first compound 0.0316 µM
[17] = second compound 0.00949 µM, first compound 0.1 µM
[18] = second compound 0.00949 µM, first compound 0.316 µM
[19] = second compound 0.00949 µM, first compound 1 µM
[20] = second compound 0.00949 µM, first compound 3.16 µM
[21] = second compound 0.00949 µM, first compound 10 µM
[22] = second compound 0.03 µM, first compound 0.0316 µM
[23] = second compound 0.03 µM, first compound 0.1 µM
[24] = second compound 0.03 µM, first compound 0.316 µM
[25] = second compound 0.03 µM, first compound 1 µM
[26] = second compound 0.03 µM, first compound 3.16 µM
[27] = second compound 0.03 µM, first compound 10 µM
[28] = second compound 0.0949 µM, first compound 0.0316 µM
[29] = second compound 0.0949 µM, first compound 0.1 µM
[30] = second compound 0.0949 µM, first compound 0.316 µM
[31] = second compound 0.0949 µM, first compound 1 µM
[32] = second compound 0.0949 µM, first compound 3.16 µM
[33] = second compound 0.0949 µM, first compound 10 µM
[34] = second compound 0.3 µM, first compound 0.0316 µM
[35] = second compound 0.3 µM, first compound 0.1 µM
[36] = second compound 0.3 µM, first compound 0.316 µM
[37] = second compound 0.3 µM, first compound 1 µM
[38] = second compound 0.3 µM, first compound 3.16 µM
[39] = second compound 0.3 µM, first compound 10 µM

COc1cc(C)[nH]c(=O)c1CN1CCc2c(Cl)cc(C(OC)C3COC3)c(Cl)c2C1=O (stereo unspecified) + COc1cc2c(cc1O)CCNC21CSC2c3c(OC(C)=O)c(C)c4c(c3C(COC1=O)N1C(O)C3Cc5cc(C)c(OC)c(O)c5C(C21)N3C)OCO4
IC50 [1]: > 10 µM
IC50 [2]: > 10 µM
IC50 [3]: > 10 µM
IC50 [4]: > 10 µM
IC50 [5]: < 0.0316 µM
viability, T/C (second compound 30 pM, first compound 0.0316 µM): 104%
viability, T/C (second compound 30 pM, first compound 0.1 µM): 101%
viability, T/C (second compound 30 pM, first compound 0.316 µM): 95.8%
viability, T/C (second compound 30 pM, first compound 1 µM): 101%
viability, T/C (second compound 30 pM, first compound 3.16 µM): 97.8%
viability, T/C (second compound 30 pM, first compound 10 µM): 98.4%
viability, T/C (second compound 94.9 pM, first compound 0.0316 µM): 107%
viability, T/C (second compound 94.9 pM, first compound 0.1 µM): 96.5%
viability, T/C (second compound 94.9 pM, first compound 0.316 µM): 103%
viability, T/C (second compound 94.9 pM, first compound 1 µM): 95.4%
viability, T/C (second compound 94.9 pM, first compound 3.16 µM): 99.1%
viability, T/C (second compound 94.9 pM, first compound 10 µM): 104%
viability, T/C (second compound 0.0003 µM, first compound 0.0316 µM): 100%
viability, T/C (second compound 0.0003 µM, first compound 0.1 µM): 105%
viability, T/C (second compound 0.0003 µM, first compound 0.316 µM): 98.8%
viability, T/C (second compound 0.0003 µM, first compound 1 µM): 97.1%
viability, T/C (second compound 0.0003 µM, first compound 3.16 µM): 94.6%
viability, T/C (second compound 0.0003 µM, first compound 10 µM): 97.8%
viability, T/C (second compound 0.000949 µM, first compound 0.0316 µM): 83.7%
viability, T/C (second compound 0.000949 µM, first compound 0.1 µM): 80.3%
viability, T/C (second compound 0.000949 µM, first compound 0.316 µM): 83%
viability, T/C (second compound 0.000949 µM, first compound 1 µM): 80.9%
viability, T/C (second compound 0.000949 µM, first compound 3.16 µM): 87%
viability, T/C (second compound 0.000949 µM, first compound 10 µM): 77.9%
viability, T/C [6]: 18.9%
viability, T/C [7]: 5.38%
viability, T/C [8]: 7.56%
viability, T/C [9]: 12.5%
viability, T/C [10]: 5.22%
viability, T/C [11]: 2.69%

COc1cc2c(cc1O)CCNC21CSC2c3c(OC(C)=O)c(C)c4c(c3C(COC1=O)N1C(O)C3Cc5cc(C)c(OC)c(O)c5C(C21)N3C)OCO4 (stereo unspecified)
viability, T/C (compound 30 pM): 103% [middle of 10 runs]
viability, T/C (compound 94.9 pM): 105% [middle of 10 runs]
viability, T/C (compound 0.0003 µM): 103% [middle of 10 runs]
viability, T/C (compound 0.000949 µM): 84.7% [middle of 10 runs]
viability, T/C (compound 0.003 µM): 7.79% [middle of 10 runs]
IC50 (compound alone, run of 12/16/2019): 1.62 nM [middle of 8 runs]

COc1cc(C)[nH]c(=O)c1CN1CCc2c(Cl)cc(C(OC)C3COC3)c(Cl)c2C1=O (stereo unspecified) + CC[C@@]1(O)C(=O)OCc2c1cc1n(c2=O)Cc2cc3c(CN(C)C)c(O)ccc3nc2-1
IC50 [5]: > 10 µM
IC50 [12]: > 10 µM
IC50 [13]: > 10 µM
IC50 [14]: > 10 µM
IC50 [15]: > 10 µM
viability, T/C [6]: 108%
viability, T/C [7]: 105%
viability, T/C [8]: 99.9%
viability, T/C [9]: 101%
viability, T/C [10]: 103%
viability, T/C [11]: 97.8%
viability, T/C [16]: 102%
viability, T/C [17]: 98.6%
viability, T/C [18]: 91.5%
viability, T/C [19]: 93.3%
viability, T/C [20]: 99.6%
viability, T/C [21]: 106%
viability, T/C [22]: 99.3%
viability, T/C [23]: 93.5%
viability, T/C [24]: 97.5%
viability, T/C [25]: 89.2%
viability, T/C [26]: 95.7%
viability, T/C [27]: 99.3%
viability, T/C [28]: 106%
viability, T/C [29]: 109%
viability, T/C [30]: 99.8%
viability, T/C [31]: 102%
viability, T/C [32]: 94.2%
viability, T/C [33]: 106%
viability, T/C [34]: 104%
viability, T/C [35]: 101%
viability, T/C [36]: 99.8%
viability, T/C [37]: 102%
viability, T/C [38]: 95.8%
viability, T/C [39]: 88.7%

CNCc1ccc(-c2cc(-c3nc(-c4ccc(S(=O)(=O)C(C)C)cc4)cnc3N)on2)cc1 + COc1cc2c(cc1O)CCNC21CSC2c3c(OC(C)=O)c(C)c4c(c3C(COC1=O)N1C(O)C3Cc5cc(C)c(OC)c(O)c5C(C21)N3C)OCO4
IC50 [1]: > 3 µM
IC50 [2]: > 3 µM
IC50 [3]: > 3 µM
IC50 [4]: > 3 µM
IC50 [5]: < 0.00949 µM
viability, T/C (second compound 30 pM, first compound 0.00949 µM): 107%
viability, T/C (second compound 30 pM, first compound 0.03 µM): 99%
viability, T/C (second compound 30 pM, first compound 0.0949 µM): 104%
viability, T/C (second compound 30 pM, first compound 0.3 µM): 103%
viability, T/C (second compound 30 pM, first compound 0.949 µM): 98%
viability, T/C (second compound 30 pM, first compound 3 µM): 91.4%
viability, T/C (second compound 94.9 pM, first compound 0.00949 µM): 105%
viability, T/C (second compound 94.9 pM, first compound 0.03 µM): 107%
viability, T/C (second compound 94.9 pM, first compound 0.0949 µM): 103%
viability, T/C (second compound 94.9 pM, first compound 0.3 µM): 107%
viability, T/C (second compound 94.9 pM, first compound 0.949 µM): 96.4%
viability, T/C (second compound 94.9 pM, first compound 3 µM): 95.9%
viability, T/C (second compound 0.0003 µM, first compound 0.00949 µM): 112%
viability, T/C (second compound 0.0003 µM, first compound 0.03 µM): 112%
viability, T/C (second compound 0.0003 µM, first compound 0.0949 µM): 112%
viability, T/C (second compound 0.0003 µM, first compound 0.3 µM): 105%
viability, T/C (second compound 0.0003 µM, first compound 0.949 µM): 96.4%
viability, T/C (second compound 0.0003 µM, first compound 3 µM): 93.3%
viability, T/C (second compound 0.000949 µM, first compound 0.00949 µM): 99.2%
viability, T/C (second compound 0.000949 µM, first compound 0.03 µM): 103%
viability, T/C (second compound 0.000949 µM, first compound 0.0949 µM): 103%
viability, T/C (second compound 0.000949 µM, first compound 0.3 µM): 94.3%
viability, T/C (second compound 0.000949 µM, first compound 0.949 µM): 91.3%
viability, T/C (second compound 0.000949 µM, first compound 3 µM): 86.6%
viability, T/C (second compound 0.003 µM, first compound 0.00949 µM): 9.83%
viability, T/C (second compound 0.003 µM, first compound 0.03 µM): 26.7%
viability, T/C (second compound 0.003 µM, first compound 0.0949 µM): 27.7%
viability, T/C (second compound 0.003 µM, first compound 0.3 µM): 13.2%
viability, T/C (second compound 0.003 µM, first compound 0.949 µM): 18.2%
viability, T/C (second compound 0.003 µM, first compound 3 µM): 40.3%

CC1COCCN1c1cc(-c2ccnn2C)c2ccnc(-c3ccn[nH]3)c2n1 (stereo unspecified) + CC[C@@]1(O)C(=O)OCc2c1cc1n(c2=O)Cc2cc3c(CN(C)C)c(O)ccc3nc2-1
IC50 [5]: 4.08 µM
IC50 [12]: 2.26 µM
IC50 [13]: 4.78 µM
IC50 [14]: 4.15 µM
IC50 [15]: 0.334 µM
viability, T/C [6]: 83%
viability, T/C [7]: 75.1%
viability, T/C [8]: 68.1%
viability, T/C [9]: 57%
viability, T/C [10]: 50.6%
viability, T/C [11]: 47.3%
viability, T/C [16]: 75.4%
viability, T/C [17]: 69.9%
viability, T/C [18]: 67%
viability, T/C [19]: 51.4%
viability, T/C [20]: 52%
viability, T/C [21]: 45%
viability, T/C [22]: 70.8%
viability, T/C [23]: 64.9%
viability, T/C [24]: 60.9%
viability, T/C [25]: 57.6%
viability, T/C [26]: 50.2%
viability, T/C [27]: 47.6%
viability, T/C [28]: 62.8%
viability, T/C [29]: 61.5%
viability, T/C [30]: 61.7%
viability, T/C [31]: 57.1%
viability, T/C [32]: 50.7%
viability, T/C [33]: 44.3%
viability, T/C [34]: 55.9%
viability, T/C [35]: 51.7%
viability, T/C [36]: 48.4%
viability, T/C [37]: 49.1%
viability, T/C [38]: 43.4%
viability, T/C [39]: 38.5%
